# Where two headings read alike, the source gives them in different places.
# Tested on: PTDH ortholog from Nostoc sp. 7120
# Assay: initial rate of NADH formation at […] nm, Michaelis-Menten fit
# Assay type: biochemical, Nostoc sp. PCC 7120
# Conditions: read-out: Nostoc sp. 7120, 100 mM MOPS pH 7.25, 30 °C
Km (co-substrate phosphite),Structure (SMILES),Km (co-substrate NAD+)
10.3 µM,NC(=O)c1ccc[n+]([C@@H]2O[C@H](COP(=O)(O)OP(=O)(O)OC[C@H]3O[C@@H](n4cnc5c(N)ncnc54)[C@H](O)[C@@H]3O)[C@@H](O)[C@H]2O)c1 [NAD^+],–
–,O=[PH](O)O [phosphite],20.2 µM

# Reference: article PMC3361975 (Biochemistry, 2012)
